How the values were obtained:
[1] = Stability in mouse plasma at 1 uM measured upto 120 mins by LC-MS/MS analysis; type: ADME, cell-free; settings: 2 h
[2] = Stability in monkey plasma at 1 uM measured upto 120 mins by LC-MS/MS analysis; type: ADME, cell-free, Macaca mulatta; settings: rhesus monkey, 2 h
[3] = Stability in rat plasma at 1 uM measured upto 120 mins by LC-MS/MS analysis; type: ADME, cell-free; settings: 2 h
[4] = Stability in human plasma at 1 uM measured upto 120 mins by LC-MS/MS analysis; type: ADME, cell-free; settings: 2 h
[5] = Stability in dog plasma at 1 uM measured upto 120 mins by LC-MS/MS analysis; type: ADME, cell-free, Canis lupus familiaris; settings: 2 h
[6] = Stability in mouse liver microsomes at 0.2 mg/ml measured up to 60 mins in presence of NADPH by LC-MS/MS analysis; type: ADME, Microsome; settings: 1 h
[7] = Stability in rat liver microsomes at 0.2 mg/ml measured up to 60 mins in presence of NADPH by LC-MS/MS analysis; type: ADME, Microsome; settings: 1 h
[8] = Stability in human liver microsomes at 0.2 mg/ml measured up to 60 mins in presence of NADPH by LC-MS/MS analysis; type: ADME, Microsome; settings: 1 h
[9] = Stability in monkey liver microsomes at 0.2 mg/ml measured up to 60 mins in presence of NADPH by LC-MS/MS analysis; type: ADME, Macaca mulatta, Microsome; settings: rhesus monkey, 1 h
[10] = Stability in dog liver microsomes at 0.2 mg/ml measured up to 60 mins in presence of NADPH by LC-MS/MS analysis; type: ADME, Canis lupus familiaris, Microsome; settings: 1 h
[11] = Plasma protein binding in rat at 1 uM incubated for 6 hrs by LC-MS/MS analysis; type: ADME, cell-free; settings: read-out: PPB (converted)
[12] = Plasma protein binding in human at 1 uM incubated for 6 hrs by LC-MS/MS analysis; type: ADME, cell-free; settings: read-out: PPB (converted)

With `CC(C)[N+](C)(CCOC(=O)C1c2ccccc2Oc2ccccc21)C(C)C` [PROPANTHELINE] the Stability [1] was “Unstable”, the Stability [2] was “Unstable” and the Stability [3] was “Unstable”. The Stability [4] was “Unstable” and the Stability [5] was “Unstable”.
With `Cc1ncc2n1-c1ccc(Cl)cc1C(c1ccccc1F)=NC2` [MIDAZOLAM] the Stability [6] was “Unstable”, the Stability [7] was “Unstable” and the Stability [8] was “Unstable”. For the same compound, the Stability [9] was “Unstable” and the Stability [10] was “Unstable”.
`CC(=O)Nc1ccc(O)cc1` [ACETAMINOPHEN] showed a fraction unbound at 6 h, 1 µM [11] of 0.526 and a fraction unbound at 6 h, 1 µM [12] of 0.741.

Source: ChEMBL document CHEMBL5579794, “Improved synthesis and evaluation of preclinical pharmacodynamic parameters of a new monocyclic β-lactam DPI-2016” (Bioorg Med Chem Lett, 2024)
